“And” between values parts separate entries of the source, which are not always exact repeats. Identical values can stand only once. Toxic doses and inconclusive results are not listed.
System: CD2F1 mice, L1210 leukemia ip, survival T/C
Assay: NCI In Vivo Anticancer Drug Screen. Data for tumor model L1210 Leukemia (intraperitoneal) in CD2F1 (CDF1) mice
Settings: higher = longer survival
How it was run: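 Tumor-bearing mice (transplanted tumor) were split into treated and vehicle control groups, and the measured endpoint of each treated group was divided by that of its vehicle controls.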

[1] = endpoint: mean survival time, dose: 6.25 mg/kg/injection, schedule: Q01DX009 (ip), vehicle: saline with Tween-80
[2] = endpoint: mean survival time, dose: 12.5 mg/kg/injection, schedule: Q01DX009 (ip), vehicle: saline with Tween-80
[3] = endpoint: mean survival time, dose: 25.0 mg/kg/injection, schedule: Q01DX009 (ip), vehicle: saline with Tween-80
[4] = endpoint: mean survival time, dose: 50.0 mg/kg/injection, schedule: Q01DX009 (ip), vehicle: saline with Tween-80
[5] = endpoint: mean survival time, dose: 100.0 mg/kg/injection, schedule: Q01DX009 (ip), vehicle: saline with Tween-80
[6] = endpoint: mean survival time, dose: 100.0 mg/kg/injection, schedule: Q01DX001 (ip), vehicle: saline with Tween-80
[7] = endpoint: mean survival time, dose: 200.0 mg/kg/injection, schedule: Q01DX001 (ip), vehicle: saline with Tween-80
[8] = endpoint: mean survival time, dose: 400.0 mg/kg/injection, schedule: Q01DX001 (ip), vehicle: saline with Tween-80
[9] = endpoint: mean survival time, dose: 100.0 mg/kg/injection, schedule: Q04DX003 (ip), vehicle: saline with Tween-80
[10] = endpoint: mean survival time, dose: 200.0 mg/kg/injection, schedule: Q04DX003 (ip), vehicle: saline with Tween-80
[11] = endpoint: mean survival time, dose: 400.0 mg/kg/injection, schedule: Q04DX003 (ip), vehicle: saline with Tween-80
[12] = endpoint: mean survival time, dose: 75.0 mg/kg/injection, schedule: Q01DX001 (ip), vehicle: saline
[13] = endpoint: mean survival time, dose: 150.0 mg/kg/injection, schedule: Q01DX001 (ip), vehicle: saline
[14] = endpoint: mean survival time, dose: 200.0 mg/kg/injection, schedule: Q01DX009 (ip), vehicle: saline with Tween-80

COc1ccc(C(N)=O)cc1N=NN(C)C
T/C (endpoint: mean survival time, dose: 37.5 mg/kg/injection, schedule: Q01DX009 (ip), vehicle: Klucel (hydroxypropylcellulose) (HPC)): 158 % of control
T/C (endpoint: mean survival time, dose: 75.0 mg/kg/injection, schedule: Q01DX009 (ip), vehicle: Klucel (hydroxypropylcellulose) (HPC)): 109 % of control

Cc1cccc(C)c1N=NN(C)C
T/C [1]: 107 % of control
T/C (endpoint: mean survival time, dose: 12.5 mg/kg/injection, schedule: Q01DX009 (ip), vehicle: other): 90 % of control
T/C [2]: 104 % of control
T/C (endpoint: mean survival time, dose: 25.0 mg/kg/injection, schedule: Q01DX009 (ip), vehicle: other): 100 % of control
T/C [3]: 118 % of control

Clc1cccc(Cl)c1C(Nc1nncs1)Nc1nncs1
T/C (endpoint: median survival time, dose: 25.0 mg/kg/injection, schedule: Q01DX005 (ip), vehicle: saline with Tween-80): 113 % of control
T/C (endpoint: median survival time, dose: 144.0 mg/kg/injection, schedule: Q01DX005 (ip), vehicle: saline with Tween-80): 151 % of control
T/C (endpoint: median survival time, dose: 240.0 mg/kg/injection, schedule: Q01DX005 (ip), vehicle: saline with Tween-80): 171 % of control
T/C (endpoint: median survival time, dose: 400.0 mg/kg/injection, schedule: Q01DX005 (ip), vehicle: saline with Tween-80): 192 % of control and 223 % of control

CN(C)C(=N)N(C)C
T/C [3]: 98 % of control
T/C [4]: 95 % of control
T/C [5]: 87 % of control
T/C (endpoint: mean survival time, dose: 100.0 mg/kg/injection, schedule: Q04DX003 (ip), vehicle: saline sonified): 101 % of control

C=C[Si]12OCCN(CCO1)CCO2
T/C (endpoint: mean survival time, dose: 12.5 mg/kg/injection, schedule: Q01DX009 (ip), vehicle: Klucel (hydroxypropylcellulose) (HPC)): 97 % of control and 105 % of control
T/C (endpoint: mean survival time, dose: 25.0 mg/kg/injection, schedule: Q01DX009 (ip), vehicle: Klucel (hydroxypropylcellulose) (HPC)): 95 % of control and 96 % of control
T/C (endpoint: mean survival time, dose: 50.0 mg/kg/injection, schedule: Q01DX009 (ip), vehicle: Klucel (hydroxypropylcellulose) (HPC)): 92 % of control and 100 % of control
T/C (endpoint: mean survival time, dose: 100.0 mg/kg/injection, schedule: Q01DX009 (ip), vehicle: Klucel (hydroxypropylcellulose) (HPC)): 92 % of control and 94 % of control
T/C (endpoint: mean survival time, dose: 200.0 mg/kg/injection, schedule: Q01DX009 (ip), vehicle: Klucel (hydroxypropylcellulose) (HPC)): 88 % of control and 94 % of control
T/C (endpoint: mean survival time, dose: 400.0 mg/kg/injection, schedule: Q01DX009 (ip), vehicle: Klucel (hydroxypropylcellulose) (HPC)): 88 % of control and 95 % of control

COc1cc(-c2cc(OC)c(O)c(OC)c2)cc(OC)c1O
T/C [6]: 96 % of control
T/C [7]: 101 % of control
T/C [8]: 90 % of control

CCOC(OCC)c1nc(N)[nH]c(=O)c1CCCCc1ccccc1
T/C [9]: 87 % of control
T/C [10]: 87 % of control
T/C [11]: 95 % of control

CN(C)c1ccc(Cc2cc(O)c3c(c2O)C(=O)c2ccccc2C3=O)cc1
T/C (endpoint: mean survival time, dose: 100.0 mg/kg/injection, schedule: Q01DX009 (ip), vehicle: saline sonified): 93 % of control
T/C (endpoint: mean survival time, dose: 200.0 mg/kg/injection, schedule: Q01DX009 (ip), vehicle: saline sonified): 100 % of control
T/C (endpoint: mean survival time, dose: 400.0 mg/kg/injection, schedule: Q01DX009 (ip), vehicle: saline sonified): 96 % of control

NS(=O)(=O)C1CCC(Cl)NC1 (configuration not stated)
T/C [9]: 100 % of control
T/C [10]: 96 % of control
T/C [11]: 102 % of control

CCCCCCCCCCCCC1C(=O)NC(=O)NC1=O
T/C [12]: 100 % of control
T/C [13]: 99 % of control
T/C (endpoint: mean survival time, dose: 300.0 mg/kg/injection, schedule: Q01DX001 (ip), vehicle: saline): 97 % of control

CCOC1(OCC)C2C=CC1C(C#N)(C#N)C2(C#N)C#N
T/C [12]: 103 % of control
T/C [13]: 104 % of control

Cc1ccc(S(=O)(=O)N2C(=O)OC3(CCCCC3)C2C)cc1 (configuration not stated)
T/C [6]: 100 % of control
T/C [7]: 95 % of control
T/C [8]: 92 % of control

O=C(NCCCCCCCCCCNC(=O)Nc1ccc(C2=NCCCN2)cc1)Nc1ccc(C2=NCCCN2)cc1
T/C (endpoint: mean survival time, dose: 5.0 mg/kg/injection, schedule: Q01DX009 (ip), vehicle: saline): 103 % of control
T/C (endpoint: mean survival time, dose: 8.0 mg/kg/injection, schedule: Q01DX009 (ip), vehicle: saline): 117 % of control
T/C (endpoint: mean survival time, dose: 19.0 mg/kg/injection, schedule: Q01DX009 (ip), vehicle: saline): 121 % of control

O=C(COc1ccc(Cl)c(Cl)c1)NCc1ccc(Cl)cc1
T/C [9]: 97 % of control
T/C [10]: 95 % of control
T/C [11]: 93 % of control

COc1cc(Cl)ccc1NC(=O)OCCOc1ccc(Cl)cc1
T/C [4]: 91 % of control
T/C [5]: 88 % of control
T/C [14]: 91 % of control

CC[N+](C)(CC)CCCOC(=O)C(c1ccccc1)c1ccccc1
T/C [1]: 96 % of control
T/C [2]: 96 % of control
T/C [3]: 94 % of control

CCCC(=O)OCc1ccc(Cl)cc1Cl
T/C [5]: 96 % of control
T/C [9]: 91 % of control
T/C [14]: 98 % of control
T/C [10]: 89 % of control
T/C (endpoint: mean survival time, dose: 400.0 mg/kg/injection, schedule: Q01DX009 (ip), vehicle: saline with Tween-80): 98 % of control
T/C [11]: 96 % of control

CCOC(=O)CSCC(=O)C(C)(C)C
T/C [6]: 98 % of control
T/C [7]: 98 % of control
T/C [8]: 102 % of control

c1cnc2c(OB(C3CCCCC3)C3CCCCC3)cccc2c1
T/C [6]: 105 % of control
T/C [7]: 91 % of control
T/C [8]: 91 % of control

COc1cc2c(c(OC)c1OC)-c1cccc(=O)cc1C(NC(C)=O)CC2 (configuration not stated)
T/C (endpoint: median survival time, dose: 2.5 mg/kg/injection, schedule: Q01DX005 (ip), vehicle: saline): 107 % of control
T/C (endpoint: median survival time, dose: 5.0 mg/kg/injection, schedule: Q01DX005 (ip), vehicle: saline): 111 % of control
T/C (endpoint: median survival time, dose: 10.0 mg/kg/injection, schedule: Q01DX005 (ip), vehicle: saline): 108 % of control and 111 % of control
T/C (endpoint: median survival time, dose: 20.0 mg/kg/injection, schedule: Q01DX005 (ip), vehicle: saline): 117 % of control and 111 % of control
T/C (endpoint: median survival time, dose: 40.0 mg/kg/injection, schedule: Q01DX005 (ip), vehicle: saline): 116 % of control and 111 % of control
T/C (endpoint: median survival time, dose: 80.0 mg/kg/injection, schedule: Q01DX005 (ip), vehicle: saline): 122 % of control
T/C (endpoint: median survival time, dose: 160.0 mg/kg/injection, schedule: Q01DX005 (ip), vehicle: saline): 122 % of control

C=C(CC(=O)OC)C(=O)O
T/C (endpoint: mean survival time, dose: 12.5 mg/kg/injection, schedule: Q01DX009 (ip), vehicle: saline): 98 % of control
T/C (endpoint: mean survival time, dose: 25.0 mg/kg/injection, schedule: Q01DX009 (ip), vehicle: saline): 98 % of control
T/C (endpoint: mean survival time, dose: 50.0 mg/kg/injection, schedule: Q01DX009 (ip), vehicle: saline): 107 % of control
T/C [9]: 95 % of control
T/C [10]: 98 % of control
T/C [11]: 97 % of control

O=C1C2=C(Nc3cc([N+](=O)[O-])ccc3N2)OC1c1ccccn1 (configuration not stated)
T/C (endpoint: median survival time, dose: 25.0 mg/kg/injection, schedule: Q01DX005 (ip), vehicle: Klucel (hydroxypropylcellulose) (HPC)): 102 % of control
T/C (endpoint: median survival time, dose: 50.0 mg/kg/injection, schedule: Q01DX005 (ip), vehicle: Klucel (hydroxypropylcellulose) (HPC)): 108 % of control
T/C (endpoint: median survival time, dose: 100.0 mg/kg/injection, schedule: Q01DX005 (ip), vehicle: Klucel (hydroxypropylcellulose) (HPC)): 108 % of control

CCC1CN2CCC1CC2C(O)c1cc[n+]([O-])c2ccc(OC)cc12 (configuration not stated)
T/C (endpoint: mean survival time, dose: 100.0 mg/kg/injection, schedule: Q04DX003 (ip), vehicle: Klucel (hydroxypropylcellulose) (HPC)): 98 % of control
T/C (endpoint: mean survival time, dose: 200.0 mg/kg/injection, schedule: Q04DX003 (ip), vehicle: Klucel (hydroxypropylcellulose) (HPC)): 102 % of control
T/C (endpoint: mean survival time, dose: 400.0 mg/kg/injection, schedule: Q04DX003 (ip), vehicle: Klucel (hydroxypropylcellulose) (HPC)): 102 % of control

C[CH2][Sn]1([CH2]C)[O]C2C(CO)OC(n3ccc(=O)[nH]c3=O)C2[O]1 (configuration not stated)
T/C (endpoint: mean survival time, dose: 1.56 mg/kg/injection, schedule: Q01DX005 (ip), vehicle: water): 103 % of control
T/C (endpoint: mean survival time, dose: 3.13 mg/kg/injection, schedule: Q01DX005 (ip), vehicle: water): 102 % of control
T/C (endpoint: mean survival time, dose: 6.25 mg/kg/injection, schedule: Q01DX005 (ip), vehicle: water): 96 % of control
T/C (endpoint: mean survival time, dose: 12.5 mg/kg/injection, schedule: Q01DX005 (ip), vehicle: other): 104 % of control

NNC(=O)Nc1nn[nH]n1
T/C (endpoint: mean survival time, dose: 100.0 mg/kg/injection, schedule: Q04DX002 (ip), vehicle: saline with Tween-80): 97 % of control
T/C (endpoint: mean survival time, dose: 200.0 mg/kg/injection, schedule: Q04DX002 (ip), vehicle: saline with Tween-80): 97 % of control
T/C (endpoint: mean survival time, dose: 400.0 mg/kg/injection, schedule: Q04DX002 (ip), vehicle: saline with Tween-80): 94 % of control

NC(=O)C(Cc1ccccc1)NC(=O)c1ccccc1 (configuration not stated)
T/C [5]: 91 % of control
